Reference: PMC4492635 (Drug Design, Development and Therapy, 2015)

What was measured:
hHMGR = molecular target: T1, hHMGR (Homo sapiens, UniProt P04035); test: Enzymatic assay of recombinant hHMGR; format: biochemical; conditions: result in words, Figure 4
T1 sequence (P04035 450-883 limits assumed): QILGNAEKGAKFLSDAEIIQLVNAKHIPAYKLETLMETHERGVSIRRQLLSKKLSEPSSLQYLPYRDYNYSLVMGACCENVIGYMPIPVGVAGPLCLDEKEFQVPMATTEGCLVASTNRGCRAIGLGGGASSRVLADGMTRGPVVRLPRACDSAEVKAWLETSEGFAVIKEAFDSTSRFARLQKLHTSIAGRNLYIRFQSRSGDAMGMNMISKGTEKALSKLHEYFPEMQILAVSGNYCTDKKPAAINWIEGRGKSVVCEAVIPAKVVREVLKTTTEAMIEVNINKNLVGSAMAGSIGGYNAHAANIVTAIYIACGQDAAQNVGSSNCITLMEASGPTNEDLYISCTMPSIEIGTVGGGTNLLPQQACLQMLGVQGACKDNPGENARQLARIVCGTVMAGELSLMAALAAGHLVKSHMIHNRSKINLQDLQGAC

HepG2 cells = test: MTT assay, cellular toxicity on HepG2 cells; format: cell-based; conditions: 24 h treatment, result in words

| Compound | inhibition of hHMGR activities (hHMGR) | cytotoxic effect (HepG2 cells) |
| --- | --- | --- |
| CCCCCCCCCCCCCCCCCCCCCCO [Compound 8, Docosan-1-ol] | effectively inhibit | milder cytotoxic effect |
| O=C(/C=C/c1ccc(O)c2oc(-c3ccc(O)c(O)c3)cc12)O[C@H](Cc1ccc(O)c(O)c1)C(=O)O [Compound 1, (2r)-3-(3,4-dihydroxyphenyl)-2-[(E)-3-[2-(3,4-dihydroxyphenyl)-7-hydroxy-1-benzofuran-4-yl]prop-2-enoyl] oxypropanoic acid] | effectively inhibit |  |
| COc1cc(/C=C/C(=O)CC(=O)/C=C/c2ccc(O)c(OC)c2)ccc1O [Compound 3, (1E,6E)-1,7-bis(4-hydroxy-3-methoxyphenyl)-1,6-heptadiene-3,5-dione] | effectively inhibit |  |
| Nc1nc(O)c2nc(CNc3ccc(C(=O)N[C@@H](CCC(=O)O)C(=O)O)cc3)cnc2n1 [Compound 10, (2S)-2-[(4-{[(2-amino-4-hydroxypteridin-6-yl)methyl]amino}phenyl) formamido] pentanedioic acid] | no inhibitory capability |  |
